Measured values as given in EPA's ToxRefDB 2.

What was measured:
mouse [1] = conditions: Subchronic oral toxicity in rodents, cd1, Feed, dose end: 13 week, group: systemic
rat [2] = conditions: Subchronic oral toxicity in rodents, sprague dawley, Feed, dose end: 90 day, group: systemic
rat [3] = conditions: Multigenerational reproductive toxicity study, other, Oral, Feed, dose end: 2 generation
dog [4] = conditions: Chronic toxicity; beagle; Oral; Capsule; dose end: 52 week; group: systemic; systemic / in life observation / clinical signs / abnormal movements + systemic / in life observation / clinical signs / altered breathing …
dog [5] = conditions: Subchronic oral toxicity in nonrodent, beagle, Capsule, dose end: 90 day, group: systemic, systemic / clinical chemistry / albumin-globulin ratio / albumin-globulin ratio + systemic / clinical chemistry / cholesterol / cholesterol…
mouse [6] = conditions: Carcinogenicity, cd1, Oral, Feed, dose end: 82 week, group: systemic
rat [7] = conditions: Combined chronic toxicity/carcinogenicity, fischer, Oral, Feed, dose end: 24 month, group: systemic
rat [8] = conditions: Prenatal developmental toxicity study, fischer, Oral, Feed, dose end: 15 GD
dog [9] = conditions: Subchronic oral toxicity in nonrodent, beagle, Feed, dose end: 6 month
rat [10] = conditions: Subchronic oral toxicity in rodents, fischer, Feed, dose end: 13 week
dog [11] = conditions: Subchronic oral toxicity in nonrodent, beagle, Feed, dose end: 13 week, group: systemic, systemic / hematology / erythrocyte (rbc) count differential / erythrocyte (rbc) + systemic / in life observation / body weight / body …
dog [12] = conditions: Chronic toxicity, beagle, Oral, Feed, dose end: 52 week
rat [13] = conditions: Combined chronic toxicity/carcinogenicity, sprague dawley, Oral, Feed, dose end: 2 year
mouse [14] = conditions: Carcinogenicity, cd1, Oral, Feed, dose end: 97 week, group: systemic
mouse [15] = conditions: Subchronic oral toxicity in rodents, cd1, Feed, dose end: 4 week, group: systemic
rat [16] = conditions: Multigenerational reproductive toxicity study, other, Oral, Feed, dose end: 2 generation; remark: listed apart in the source
[17] = systemic / clinical chemistry / creatinine / creatinine
[18] = systemic / clinical chemistry / albumin / albumin + systemic / clinical chemistry / cholesterol / cholesterol + systemic / clinical …
[19] = group: offspring, systemic / in life observation / body weight / offspring (pup) weight
[20] = group: parental, systemic / in life observation / body weight / body weight + systemic / in life observation / body weight / body weight gain + systemic / …
[21] = systemic / in life observation / body weight / body weight gain
[22] = systemic / organ weight / thyroid gland / absolute + systemic / organ weight / thyroid gland / relative to body weight
[23] = group: developmental, developmental / developmental malformation / bone / bipartite ossification + developmental / developmental malformation / general / crown-…
[24] = group: maternal, systemic / in life observation / body weight / body weight gain + reproductive / reproductive performance / pregnancy / pregnancy + …
[25] = group: cholinesterase, cholinesterase / cholinesterase / cholinesterase / erythrocyte cholinesterase (che) + cholinesterase / cholinesterase / cholinesterase / …
[26] = group: systemic, systemic / clinical chemistry / alanine aminotransferase (alt/sgpt) / alanine aminotransferase (alt/sgpt) + systemic / organ weight / liver…
[27] = group: cholinesterase, cholinesterase / cholinesterase / cholinesterase / brain cholinesterase (che)
[28] = group: systemic, systemic / clinical chemistry / calcium / calcium + systemic / hematology / leukocyte (wbc) count differential / leukocyte (wbc) + systemic…
[29] = group: cholinesterase, cholinesterase / cholinesterase / cholinesterase / brain cholinesterase (che) + cholinesterase / cholinesterase / cholinesterase / …
[30] = group: cholinesterase, cholinesterase / cholinesterase / cholinesterase / plasma cholinesterase (che)
[31] = group: systemic, systemic / hematology / erythrocyte (rbc) count differential / erythrocyte (rbc) + systemic / hematology / hematocrit (hct) / hematocrit (…
[32] = group: cholinesterase, cholinesterase / cholinesterase / cholinesterase / erythrocyte cholinesterase (che)
[33] = group: systemic, systemic / pathology microscopic / spleen / hematopoietic cell proliferation
[34] = group: systemic, systemic / pathology microscopic / spleen / hematopoietic cell proliferation + systemic / hematology / erythrocyte (rbc) count differential…
[35] = systemic / clinical chemistry / alanine aminotransferase (alt/sgpt) / alanine aminotransferase (alt/sgpt) + systemic / clinical chemistry / …
[36] = systemic / organ weight / spleen / absolute
[37] = group: offspring, developmental / offspring survival late / viability index / viability index
[38] = group: offspring, developmental / offspring survival late / viability index / viability index + systemic / in life observation / body weight / offspring (pup…
[39] = group: parental, systemic / in life observation / body weight / body weight + systemic / in life observation / body weight / body weight gain + systemic / in…

## C#CCC1=C(C)C(OC(=O)C2C(C=C(C)C)C2(C)C)CC1=O (configuration not stated) [Prallethrin]
Mouse [1]; [17]
  LEL: 39 mg/kg/day
  NEL: < 39 mg/kg/day
Mouse [1]; systemic / in life observation / body weight / body weight + systemic / in life observation / body weight / body weight gain
  LOAEL: 1840 mg/kg/day
Mouse [1]; systemic / in life observation / body weight / body weight + systemic / in life observation / body weight / body weight gain + systemic / …
  NOAEL: 808 mg/kg/day
Rat [2]; [18]
  LOAEL: 230 mg/kg/day
  NEL: 24 mg/kg/day
  NOAEL: 79.1 mg/kg/day
Rat [2]; systemic / clinical chemistry / protein / protein + systemic / organ weight / kidney / absolute + systemic / hematology / eosinophils / …
  LEL: 79.1 mg/kg/day
Rat [3]; [19]
  LEL: 156 mg/kg/day
  LOAEL: 156 mg/kg/day
  NEL: 31 mg/kg/day
  NOAEL: 31 mg/kg/day
Rat [3]; [20]
  LOAEL: 156 mg/kg/day
  NEL: 6 mg/kg/day
  NOAEL: 31 mg/kg/day
Rat [3]; group: parental, systemic / in life observation / body weight / body weight gain
  LEL: 31 mg/kg/day
Dog [4]
  LEL: 5 mg/kg/day
  LOAEL: 5 mg/kg/day
  NEL: 2.5 mg/kg/day
  NOAEL: 2.5 mg/kg/day
Dog [5]
  LEL: 10 mg/kg/day
  LOAEL: 10 mg/kg/day
  NEL: 3 mg/kg/day
  NOAEL: 3 mg/kg/day
Mouse [6]; [21]
  LOAEL: 347 mg/kg/day
Mouse [6]; systemic / in life observation / body weight / body weight gain + systemic / organ weight / liver / nos
  NOAEL: 68 mg/kg/day
Mouse [6]; systemic / in life observation / clinical signs / fur (altered appearance)
  LEL: 68 mg/kg/day
Mouse [6]; systemic / in life observation / clinical signs / fur (altered appearance) + systemic / organ weight / kidney / nos + systemic / organ …
  NEL: 13 mg/kg/day
Rat [7]; [21]
  LOAEL: 83.5 mg/kg/day
Rat [7]; systemic / in life observation / body weight / body weight gain + systemic / clinical chemistry / cholesterol / cholesterol + systemic / …
  NOAEL: 16.3 mg/kg/day
Rat [7]; [22]
  LEL: 4 mg/kg/day
  NEL: < 4 mg/kg/day

## CSC(C)=NOC(=O)N(C)SN(C)C(=O)ON=C(C)SC [Thiodicarb]
Rat [8]; [23]
  LEL: 100 mg/kg/day
  LOAEL: 100 mg/kg/day
  NEL: 3 mg/kg/day
  NOAEL: 3 mg/kg/day
Rat [8]; group: maternal, reproductive / reproductive performance / pregnancy / pregnancy
  LEL: 3 mg/kg/day
Rat [8]; group: maternal, systemic / in life observation / body weight / body weight gain
  LOAEL: 1 mg/kg/day
Rat [8]; [24]
  NEL: 1 mg/kg/day
  NOAEL: 0.5 mg/kg/day
Dog [9]; [25]
  LEL: 45 mg/kg/day
  LOAEL: 45 mg/kg/day
  NEL: 15 mg/kg/day
  NOAEL: 15 mg/kg/day
Dog [9]; [26]
  LEL: 45 mg/kg/day
  LOAEL: 45 mg/kg/day
  NEL: 15 mg/kg/day
  NOAEL: 15 mg/kg/day
Rat [10]; [27]
  LEL: 30 mg/kg/day
  LOAEL: > 30 mg/kg/day
  NEL: 10 mg/kg/day
  NOAEL: ≥ 30 mg/kg/day
Rat [10]; [28]
  LOAEL: > 30 mg/kg/day
  NEL: 3 mg/kg/day
  NOAEL: ≥ 30 mg/kg/day
Rat [10]; group: systemic, systemic / hematology / leukocyte (wbc) count differential / leukocyte (wbc) + systemic / in life observation / body weight / body weight
  LEL: 10 mg/kg/day
Dog [11]
  LEL: 40 mg/kg/day
  LOAEL: 40 mg/kg/day
  NEL: 15 mg/kg/day
  NOAEL: 15 mg/kg/day
Dog [12]; [29]
  LOAEL: 12.8 mg/kg/day
  NOAEL: 4.4 mg/kg/day
Dog [12]; [30]
  LEL: 4.5 mg/kg/day
  NEL: < 4.5 mg/kg/day
Dog [12]; [31]
  LEL: 38.3 mg/kg/day
  LOAEL: 38.3 mg/kg/day
  NEL: 12.8 mg/kg/day
  NOAEL: 12.8 mg/kg/day
Rat [13]; [32]
  LEL: 15 mg/kg/day
  LOAEL: 15 mg/kg/day
Rat [13]; [25]
  NEL: 4.5 mg/kg/day
  NOAEL: 4.5 mg/kg/day
Rat [13]; [33]
  LEL: 12 mg/kg/day
  LOAEL: 12 mg/kg/day
Rat [13]; [34]
  NEL: 3.3 mg/kg/day
  NOAEL: 3.3 mg/kg/day
Mouse [14]; [35]
  LOAEL: 1000 mg/kg/day
  NOAEL: 70 mg/kg/day
Mouse [14]; systemic / in life observation / body weight / body weight + systemic / organ weight / kidney / absolute + systemic / organ weight / kidney…
  NEL: 5 mg/kg/day
Mouse [14]; systemic / pathology gross / spleen / enlarged + systemic / organ weight / liver / absolute + systemic / organ weight / spleen / absolute + …
  LEL: 70 mg/kg/day
Mouse [15]; [21]
  LOAEL: 734 mg/kg/day
Mouse [15]; [36]
  LEL: 6.2 mg/kg/day
  NEL: < 6.2 mg/kg/day
Mouse [15]; systemic / organ weight / spleen / absolute + systemic / in life observation / body weight / body weight gain + systemic / in life …
  NOAEL: 346 mg/kg/day
Rat [16]; [37]
  LOAEL: 5 mg/kg/day
  NOAEL: < 5 mg/kg/day
Rat [16]; [38]
  LEL: 5 mg/kg/day
  NEL: < 5 mg/kg/day
Rat [16]; [39]
  LEL: 15 mg/kg/day
  LOAEL: 15 mg/kg/day
  NEL: 5 mg/kg/day
  NOAEL: 5 mg/kg/day
